By GI50 is commonly meant the concentration at which growth is held to half of that of the control. Low values mean more potent growth inhibition, high ones less potent growth inhibition.

Where a name gives a salt, the structure may show the parent alone.

What all share (assay): Inhibition of cancer cell proliferation (MTT)
What all share (type): cell-based, human

One assay has as its system A549. Here is the method: (§1) A test was conducted to confirm whether the compounds obtained in the above Examples can inhibit proliferation of human colon carcinoma cell line HCT116, glioblastoma cell lines U-87MG and T98G, neuroblastoma cell lines SH-SYSY and SK-N-SH, and lung cancer cell lines A549 and NCI-H23.
(§2) HCT116, U-87MG, SH-SYSY, SK-N-SH and A549 cells were culured in DMEM medium containing 10% FBS. T98G cells were cultured in MEM medium containing 10% FBS and NCI-H23 cells were cultured in […] medium containing 10% FBS. In order to analyze an inhibition of proliferation, HCT116 cells were dispensed in 2000 cells/well into 96 well plate, and SH-SYSY, SK-N-SH, U-87MG, T98G, A549, and NCI-H23 cells were dispensed in 3000 cells/well into 96 well plate. And then, the cells were cultured at 5% CO2 and 37° C. for 16 hrs to allow the cells to attach to the wells. The compounds of the above Examples were added to each well at a concentration of 0.004, 0.013, 0.04, 0.12, 0.37, 1.1, 3.3, and 10 uM, and the culture volume was adjusted to 100 ul. A control group was treated with dimethylsulfoxide (DMSO) at the same concentration, 0.08%, as used to treat the test compounds. Afterwards, cells were cultured at 5% CO2 and 37° C. for 72 hrs. And then, 10 ul of the solution of MTT (3-(4,5-dimethylthiazol-2-yl)-2,5-diphenyltetrazolium bromide) dissolved in PBS at 5 mg/ml was added to each well to identify viable cells and the cells were cultured for further 2 hrs. The culture solution was removed, 100 ul of DMSO was added to dissolve the formed formazan and then an absorbance was measured at 535 nm. Based on the absorbance of the control cells not treated with the compounds, the amounts of the viable cells according to the concentration of the compounds were calculated. GI50 (growth inhibition 50) value which is the concentration of the compound to inhibit cancer cell proliferation by 50% was calculated using Graphpad Prism 5.0 program.

The subject of the next assay is HCT116. The protocol:
as §1, §2

A further assay deals with NCI-H23. Here is the method:
as §1, §2

The subject of a further assay is T98G. Here is the method:
as §1, §2

The subject of another assay is U-87MG. Here is the method:
as §1, §2

With `CC(C)N1CCCC(c2cc(-c3nc(-c4ccnc(N)c4F)ccc3O)nc(N)n2)C1` (stereo not shown) [Example 92, 2′-amino-6-(2-amino-6-(1-isopropylpiperidin-3-yl)pyrimidin-4-yl)-3′-fluoro[2,4′-bipyridin]-5-ol 4hydrochloride], the concentration for 50% growth inhibition (GI50) in the assay with A549 (72 hrs) was determined as 30 nM; in the assay on HCT116 (72 hrs), 20 nM; in the assay with NCI-H23 (72 hrs), 50 nM; in the assay with T98G (72 hrs), 90 nM; in the assay with U-87MG (72 hrs), 30 nM.

Regarding `CCc1c(-c2nc(-c3ccnc(N)c3F)ccc2O)nc(N)nc1C1CCN(C(C)C)CC1` [Example 105], the 50% growth inhibitory concentration (GI50) in the assay on A549 (72 hrs) worked out at 60 nM; in the assay with HCT116 (72 hrs) it was 30 nM; with NCI-H23 (72 hrs), 90 nM; in the assay with T98G (72 hrs), 60 nM; in the assay on U-87MG (72 hrs), 40 nM.

In the case of `Nc1nc(-c2nc(-c3ccnc(N)c3F)ccc2O)cc(C2CCNCC2)n1` [Example 84, 2′-amino-6-(2-amino-6-(piperidin-4-yl)pyrimidin-4-yl)-3′-fluoro-[2,4′-bipyridin]-5-ol acetate], the GI50 in the assay with A549 (72 hrs) was 220 nM; in the assay on HCT116 (72 hrs), 60 nM; in the assay with NCI-H23 (72 hrs), 2030 nM; in the assay on T98G (72 hrs) it was 290 nM; in the assay with U-87MG (72 hrs), 180 nM.

For `CCc1cnc(N)nc1-c1nc(-c2ccnc(N)c2F)ccc1O` [Example 102, 2′-amino-6-(2-amino-5-ethylpyrimidin-4-yl)-3′-fluoro-[2,4′-bipyridin]-5-ol 3hydrochloride], the GI50 in the assay on A549 (72 hrs) stood at 40 nM; with HCT116 (72 hrs), 10 nM; with NCI-H23 (72 hrs), 30 nM; in the assay with T98G (72 hrs) it was 20 nM; in the assay on U-87MG (72 hrs) it was 30 nM.

Turning to `CCN1CCC(c2nc(N)nc(-c3nc(-c4ccnc(N)c4F)ccc3O)c2C)CC1` [Example 43, 2′-amino-6-(2-amino-6-(1-ethylpiperidin-4-yl)-5-methylpyrimidin-4-yl)-3′-fluoro-[2,4′-bipyridin]-5-ol], the GI50 was 460 nM with A549 (Homo sapiens, A549, 72 h); 230 nM with HCT116 (Homo sapiens, HCT-116, 72 h); 960 nM in the assay with NCI-H23 (Homo sapiens, NCI-H23, 72 h); 460 nM in the assay on T98G (Homo sapiens, T98G, 72 h); 280 nM in the assay on U-87MG (Homo sapiens, U-87 MG, 72 h).

With `Cc1c(-c2nc(-c3ccnc(N)c3F)ccc2O)nc(N)nc1C1CCCN(C)C1` (stereo not shown) [Example 46], the GI50 with A549 (Homo sapiens, A549, 72 h) came to 210 nM; in the assay with HCT116 (Homo sapiens, HCT-116, 72 h), 140 nM; with NCI-H23 (Homo sapiens, NCI-H23, 72 h) it was 410 nM; in the assay with T98G (Homo sapiens, T98G, 72 h), 250 nM; with U-87MG (Homo sapiens, U-87 MG, 72 h), 150 nM.

For `CN1CCC(c2cc(-c3nc(-c4ccnc(N)c4F)ccc3O)nc(N)n2)CC1` [Example 77, 2′-amino-6-(2-amino-(6-(1-methylpiperidin-4-yl)pyrimidin-4-yl)-3′-fluoro-[2,4′-bipyridin]-5-ol 4hydrochloride], the GI50 was determined as 10 nM in the assay on A549 (72 hrs); 3 nM with HCT116 (72 hrs); 30 nM in the assay on NCI-H23 (72 hrs); 30 nM with T98G (72 hrs); 10 nM with U-87MG (72 hrs).

For `CCCc1c(-c2nc(-c3ccnc(N)c3F)ccc2O)nc(N)nc1C1CCN(C(C)C)CC1` [Example 106, 2′-amino-6-(2-amino-6-(1-isopropylpiperidin-4-yl)-5-propylpyrimidin-4-yl)-3′-fluoro-[2,4′-bipyridin]-5-ol 4hydrochloride], the GI50 with A549 (72 hrs) was 820 nM; with HCT116 (72 hrs) it was 60 nM; in the assay with NCI-H23 (72 hrs), 170 nM; in the assay with T98G (72 hrs), 140 nM; in the assay with U-87MG (72 hrs), 90 nM.

`CC(C)N1CCC(c2cc(-c3nc(-c4ccnc(N)c4F)ccc3O)nc(N)n2)CC1` [Example 37, 2′-amino-6-(2-amino-6-(1-isopropylpiperidin-4-yl)pyrimidin-4-yl)-3′-fluoro-[2,4′-bipyridin]-5-ol]: the GI50 in the assay on A549 (Homo sapiens, A549, 72 h) is 20 nM; in the assay with HCT116 (72 hrs) it was 10 nM; with NCI-H23 (Homo sapiens, NCI-H23, 72 h), 60 nM; in the assay with T98G (Homo sapiens, T98G, 72 h) it was 30 nM; in the assay on U-87MG (Homo sapiens, U-87 MG, 72 h) it was 10 nM.

Consider `Cc1nc(N)nc(-c2nc(-c3ccnc(N)c3F)ccc2O)c1C` [Example 60, 2′-amino-6-(2-amino-5,6-dimethylpyrimidin-4-yl)-3′-fluoro-[2,4′-bipyridin]-5-ol], for which the GI50 in the assay with A549 (Homo sapiens, A549, 72 h) worked out at 120 nM; in the assay with HCT116 (Homo sapiens, HCT-116, 72 h), 50 nM; in the assay with NCI-H23 (Homo sapiens, NCI-H23, 72 h), 220 nM; with T98G (Homo sapiens, T98G, 72 h) it was 260 nM; in the assay with U-87MG (Homo sapiens, U-87 MG, 72 h), 220 nM.

In the case of `CCCN1CCC(c2nc(N)nc(-c3nc(-c4ccnc(N)c4F)ccc3O)c2C)CC1` [Example 44, 2′-amino-6-(2-amino-5-methyl-6-(1-propylpiperidin-4-yl)pyrimidin-4-yl)-3′-fluoro-[2,4′-bipyridin]-5-ol], the concentration for 50% growth inhibition (GI50) in the assay on A549 (Homo sapiens, A549, 72 h) stood at 140 nM; with HCT116 (Homo sapiens, HCT-116, 72 h), 60 nM; with NCI-H23 (72 hrs) it was 330 nM; with T98G (Homo sapiens, T98G, 72 h) it was 130 nM; with U-87MG (Homo sapiens, U-87 MG, 72 h), 90 nM.

For the compound `CCCN1CCC(c2cc(-c3nc(-c4ccnc(N)c4F)ccc3O)nc(N)n2)CC1` [Example 36, 2′-amino-6-(2-amino-6-(1-propylpiperidin-4-yl)pyrimidin-4-yl)-3′-fluoro-[2,4′-bipyridin]-5-ol], the GI50 with A549 (Homo sapiens, A549, 72 h) was 20 nM; with HCT116 (72 hrs), 10 nM; in the assay with NCI-H23 (Homo sapiens, NCI-H23, 72 h), 50 nM; in the assay with T98G (Homo sapiens, T98G, 72 h), 20 nM; with U-87MG (Homo sapiens, U-87 MG, 72 h) it was 10 nM.

As to `Cc1nc(N)nc(-c2nc(-c3ccnc(N)c3F)ccc2O)c1C` [Example 101, 2′-amino-6-(2-amino-5,6-dimethylpyrimidin-4-yl)-3′-fluoro-[2,4′-bipyridin]-5-ol 3hydrochloride], the GI50 came to 120 nM with A549 (72 hrs); 60 nM with HCT116 (72 hrs); 230 nM with NCI-H23 (72 hrs); 290 nM in the assay on T98G (72 hrs); 230 nM in the assay on U-87MG (72 hrs).

As to `CC(C)N1CCC(c2cc(-c3nc(-c4ccnc(N)c4F)ccc3O)nc(N)n2)CC1` [Example 88, 2′-amino-6-(2-amino-6-(1-isopropylpiperidin-4-yl)pyrimidin-4-yl)-3′-fluoro-[2,4′-bipyridin]-5-ol 4hydrochloride], the GI50 stood at 20 nM in the assay on A549 (72 hrs); 40 nM with HCT116 (72 hrs); 40 nM in the assay with NCI-H23 (72 hrs); 20 nM in the assay on T98G (72 hrs); 10 nM in the assay with U-87MG (72 hrs).

As for `Cc1c(-c2nc(-c3ccnc(N)c3F)ccc2O)nc(N)nc1C1CCN(C)CC1` [Example 93, 2′-amino-6-(2-amino-5-methyl-6-(1-methylpiperidin-4-yl)pyrimidin-4-yl)-3′-fluoro-[2,4′-bipyridin]-5-ol 4hydrochloride], the GI50 in the assay with A549 (72 hrs) was 100 nM; in the assay with HCT116 (72 hrs) it was 70 nM; in the assay on NCI-H23 (72 hrs), 230 nM; in the assay with T98G (72 hrs), 100 nM; with U-87MG (72 hrs), 110 nM.

On to `Cc1c(-c2nc(-c3ccnc(N)c3F)ccc2O)nc(N)nc1C1CCN(C(C)C)CC1` [Example 45, 2′-amino-6-(2-amino-6-(1-isopropylpiperidin-4-yl)-5-methylpyrimidin-4-yl)-3′-fluoro-[2,4′-bipyridin]-5-ol], for which the 50% growth inhibitory concentration (GI50) is 150 nM in the assay with A549 (Homo sapiens, A549, 72 h); 90 nM in the assay on HCT116 (Homo sapiens, HCT-116, 72 h); 400 nM in the assay with NCI-H23 (Homo sapiens, NCI-H23, 72 h); 160 nM in the assay with T98G (Homo sapiens, T98G, 72 h); 100 nM in the assay with U-87MG (Homo sapiens, U-87 MG, 72 h).

`Cc1cnc(N)nc1-c1nc(-c2ccnc(N)c2F)ccc1O` [Example 55, 2′-amino-6-(2-amino-5-methylpyrimidin-4-yl)-3′-fluoro-[2,4′-bipyridin]-5-ol]: the concentration for 50% growth inhibition (GI50) with A549 (72 hrs) is 160 nM; with HCT116 (Homo sapiens, HCT-116, 72 h) it was 50 nM; with NCI-H23 (72 hrs), 180 nM; in the assay with T98G (72 hrs), 130 nM; in the assay on U-87MG (Homo sapiens, U-87 MG, 72 h) it was 110 nM.

Turning to `Cc1c(-c2nc(-c3ccnc(N)c3F)ccc2O)nc(N)nc1C1CCCN(C)C1` (stereo not shown) [Example 97], the GI50 with A549 (72 hrs) amounted to 160 nM; in the assay on HCT116 (72 hrs), 110 nM; in the assay on NCI-H23 (72 hrs), 290 nM; with T98G (72 hrs), 160 nM; in the assay on U-87MG (72 hrs) it was 120 nM.

Consider `Nc1nc(-c2nc(-c3ccnc(N)c3F)ccc2O)cc(C2CCOCC2)n1` [Example 32, 2′-amino-6-(2-amino-6-(tetrahydro-2H-pyran-4-yl)pyrimidin-4-yl)-3′-fluoro-[2,4′-bipyridin]-5-ol], for which the GI50 in the assay on A549 (Homo sapiens, A549, 72 h) is 80 nM; in the assay on HCT116 (Homo sapiens, HCT-116, 72 h), 30 nM; in the assay with NCI-H23 (Homo sapiens, NCI-H23, 72 h), 190 nM; with T98G (Homo sapiens, T98G, 72 h) it was 110 nM; in the assay on U-87MG (Homo sapiens, U-87 MG, 72 h), 100 nM.

In the case of `CCN1CCCC(c2cc(-c3nc(-c4ccnc(N)c4F)ccc3O)nc(N)n2)C1` (stereo not shown) [Example 90, 2′-amino-6-(2-amino-6-(1-ethylpiperidin-3-yl)pyrimidin-4-yl)-3′-fluoro-[2,4′-bipyridin]-5-ol 4hydrochloride], the GI50 in the assay on A549 (72 hrs) is 110 nM; in the assay on HCT116 (72 hrs), 40 nM; with NCI-H23 (72 hrs), 390 nM; with T98G (72 hrs), 190 nM; in the assay with U-87MG (72 hrs), 100 nM.

These data come from patent publication US20200190062A1, “HETEROCYCLIC COMPOUND AND PHARMACEUTICAL COMPOSITION COMPRISING SAME” (BEYONDBIO INC., priority 2015, published 2020).
